According to publication PMC2649378 (European Journal of Pharmacology, 2008):
Where “and” joins values, the source holds several entries; their conditions need not be identical. Equal values may be shown once. Read-outs that look alike come from different tables or passages of the source.

Assays:
[1] = target: T1, 5-HT3A receptors (Mus musculus, UniProt P23979); assay: [3H]granisetron binding to membranes of transfected HEK 293 cells, 5-HT3A receptors; settings: for Ki relative to the Ki for 5-HT: 5-HT3A receptors, fold greater than 5-HT; for Ki: WT 5-HT3A receptors, HEK 293 membranes, 0.5 nM [3H]granisetron, 4 °C
T1 construct: expressed in transfected cells; host or cells: Xenopus laevis oocytes injected with cRNA (pGEMHE)
T1 sequence (P23979 24-489): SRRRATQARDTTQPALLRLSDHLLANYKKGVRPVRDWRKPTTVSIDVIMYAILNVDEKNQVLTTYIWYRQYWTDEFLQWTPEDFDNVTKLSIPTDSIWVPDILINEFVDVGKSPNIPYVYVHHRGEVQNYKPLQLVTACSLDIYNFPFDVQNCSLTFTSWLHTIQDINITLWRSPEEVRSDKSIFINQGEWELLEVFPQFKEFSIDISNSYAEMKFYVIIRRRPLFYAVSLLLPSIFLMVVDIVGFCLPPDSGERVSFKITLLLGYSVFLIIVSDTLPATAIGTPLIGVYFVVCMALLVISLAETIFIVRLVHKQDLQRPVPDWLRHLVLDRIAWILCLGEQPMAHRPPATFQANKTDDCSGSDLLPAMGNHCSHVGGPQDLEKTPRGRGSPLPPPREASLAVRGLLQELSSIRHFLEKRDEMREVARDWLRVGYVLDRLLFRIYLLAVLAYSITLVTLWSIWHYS
Procedure: (§1) Mouse 5-HT3A (accession number: AY605711) or 5-HT3B (accession number: NM_020274, kindly provided by Ewen Kirkness) subunit cDNAs were cloned into pGEMHE for oocyte expression ([Liman et al., 1992]). cRNA was in vitro transcribed from linearised (NheI) plasmid cDNA template using the mMessage mMachine T7 kit (Ambion, Austin, Texas, USA). Stage V and VI oocytes were injected with 50 ng–100 ng cRNA, and recorded from 1–4 days post-injection. For expression in HEK 293 cells, 5-HT3 receptor subunit cDNAs were cloned into pcDNA3.1 (Invitrogen Ltd., Paisley, UK.). Mutagenesis reactions were performed using the Kunkel method and confirmed by DNA sequencing. Cells were transfected using calcium phosphate precipitation at 80–90% confluency ([Jordan et al., 1996]). Following transfection cells were incubated for 3–4 days before assay.
(§2) This was undertaken in HEK 293 cells which provide an established and robust method of studying ligand binding. Methods were as previously described ([Lummis et al., 1993]), with minor modifications. Briefly, transfected HEK 293 cells were washed twice with phosphate buffered saline (PBS) at room temperature and scraped into 1 ml of ice-cold HEPES buffer (10 mM, pH 7.4) containing the following proteinase inhibitors (PI): 1 mM EDTA, 50 μg ml^− 1 soybean trypsin inhibitor, 50 μg/ml bacitracin and 0.1 mM phenylmethylsulphonyl fluoride. […] Competition binding was performed using ligand concentrations from 0.1 μM–10 mM. Reactions were incubated for at least 1 h at 4 °C and terminated by vacuum filtration using a Brandel cell harvester onto GF/B filters pre-soaked in 0.3% polyethyleneimine. Radioactivity was determined by scintillation counting using a Beckman LS6000SC (Fullerton, California, USA). Competition binding data were analyzed by iterative curve fitting (GraphPad Prism v3.02, GraphPad Software, San Diego, California, USA), according to the equation: y=Bmin+Bmax−Bmin/1+10^[L]−logIC50 where Bmin is the lowest total binding, Bmax is the maximum specific binding at equilibrium, [L] is the concentration of competing ligand and IC50 is the concentration of competing ligand that blocks half of the specific bound radioligand. Ki values were estimated from IC50 values using the Cheng–Prusoff equation: Ki=IC50/1+[L]/Kd
(§3) where Ki is the equilibrium dissociation constant for binding of the unlabeled antagonist, [L] is the concentration of radioligand and Kd is the equilibrium dissociation constant of the radioligand.

[2] = target: T1, 5-HT3A receptors; assay: Agonist-induced currents in Xenopus oocytes expressing 5-HT3A receptors (OpusXpress electrophysiology); format: cell-based; settings: for agonist character: 5-HT3A receptors; for Relative efficacy Rmax = Imax drug / Imax 5-HT: maximal concentration; for EC50: holding potential -60 mV; for EC50 relative to Ki: EC50 fold higher than Ki; for Rmax, approximate summary value: discussion, stated for 5-HT3 receptors (5-HT3A and 5-HT3AB) without distinction
Procedure: (§4) Harvested stage V–VI Xenopus oocytes were washed in six changes of ND96 (96 mM NaCl, 2 mM KCl, 1 mM MgCl2, 1.8 mM CaCl2, 5 mM HEPES, pH 7.5), de-folliculated in 1.5 mg ml^− 1 collagenase Type 1A for approximately 2 h. Enzyme treatment was terminated by washing in six changes of ND96 and oocytes were stored in ND96 containing 2.5 mM sodium pyruvate, […] and 0.7 mM theophylline.
as §1
(§5) Agonist-induced currents were recorded at 22–25 °C from individual oocytes using the OpusXpress system (Molecular Devices Axon Instruments, Union City, CA). […] The holding potential was − 60 mV.

[3] = target: T2, 5-HT3AB receptors (Mus musculus, UniProt P23979+Q9JHJ5); assay: [3H]granisetron binding to membranes of transfected HEK 293 cells, 5-HT3AB receptors
T2 construct: expressed in transfected cells; host or cells: Xenopus laevis oocytes injected with cRNA (pGEMHE)
T2 sequence (P23979 24-489): T1 sequence (P23979 24-489)
T2 sequence (Q9JHJ5 22-437): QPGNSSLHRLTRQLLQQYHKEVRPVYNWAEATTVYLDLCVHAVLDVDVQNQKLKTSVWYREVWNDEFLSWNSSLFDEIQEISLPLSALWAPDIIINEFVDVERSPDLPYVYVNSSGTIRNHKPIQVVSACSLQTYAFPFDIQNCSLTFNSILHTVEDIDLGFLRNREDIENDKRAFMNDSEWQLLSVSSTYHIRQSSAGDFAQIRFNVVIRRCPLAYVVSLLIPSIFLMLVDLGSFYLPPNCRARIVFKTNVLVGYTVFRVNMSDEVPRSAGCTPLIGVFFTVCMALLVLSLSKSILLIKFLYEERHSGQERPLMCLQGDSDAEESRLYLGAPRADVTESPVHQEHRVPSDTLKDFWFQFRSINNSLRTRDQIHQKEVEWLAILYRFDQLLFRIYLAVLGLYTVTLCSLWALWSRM
Procedure: as §1, §2, §3

[4] = target: T2, 5-HT3AB receptors; assay: Agonist-induced currents in Xenopus oocytes expressing 5-HT3AB receptors (OpusXpress electrophysiology); format: cell-based; settings: for nH (Hill slope) / EC50 / Relative efficacy Rmax = Imax drug / Imax 5-HT: 5-HT3AB receptors in Xenopus oocytes; for agonist character: 5-HT3AB receptors; for EC50: holding potential -60 mV; for Relative efficacy Rmax = Imax drug / Imax 5-HT: maximal concentration
Procedure: as §4, §1, §5

[5] = target: T1, 5-HT3A receptors; settings: discussion; compound not tested in this paper; no reference given; cited from earlier work
[6] = 5-HT3A receptors in Xenopus oocytes
[7] = EC50, 5-HT3A receptors in Xenopus oocytes
[8] = Ki, displacement of [3H]granisetron binding
[9] = read-out: Ki, displacement of [3H]granisetron binding
[10] = 5-HT3AB receptors, HEK 293 membranes, 0.5 nM [3H]granisetron, 4 °C, read-out: Ki, displacement of [3H]granisetron binding

Cc1ccc2[nH]cc(CCN)c2c1 [5-MeT, 5-methyltryptamine]
Ki relative to the Ki for 5-HT [1]: ~100 fold
agonist character [2]: very weak partial agonist
Relative efficacy Rmax = Imax drug / Imax 5-HT [2, 6]: 0.0023
EC50 [2, 7]: 60 ± 3 µM
EC50 relative to Ki [2]: less than 5 fold
Ki [3]: 7.7 ± 1.1 µM

NCCc1c[nH]c2ccc(O)cc12 [5-HT]
nH (Hill slope) [4]: 1.4 and 1.4 ± 0.4

COc1ccc2[nH]cc(CCN)c2c1 [5-MeOT, 5-methoxytryptamine]
Ki relative to the Ki for 5-HT [1]: ~300 fold
Ki [1, 8]: 34.9 ± 3 µM
activation of 5-HT3 receptors ([2]; concentrations up to 10 mM, examined in 5-HT3A receptors): unable to activate
Ki [3]: 21.7 ± 2.1 µM

NCCc1c[nH]c2ccccc12 [tryptamine]
agonist character [4]: partial agonist
nH (Hill slope) [4]: 1.8 and 1.8 ± 0.5
EC50 ([4]; mean ± SEM, read-out: pEC50 (converted)): 60.3 µM
EC50 ([4]; read-out: EC50): 61 µM
Relative efficacy Rmax = Imax drug / Imax 5-HT [4]: 0.14 ± 0.02
Ki relative to the Ki for 5-HT [1]: ~50 fold
Ki [1, 9]: 4.8 ± 0.9 µM
agonist character [2]: partial agonist
nH (Hill slope) [2, 6]: 2.5 and 2.5 ± 0.5
EC50 ([2]; 5-HT3A receptors in Xenopus oocytes, mean ± SEM, read-out: pEC50 (converted)): 123 µM
Relative efficacy Rmax = Imax drug / Imax 5-HT [2, 6]: 0.15
Relative efficacy Rmax = Imax drug / Imax 5-HT ([2]; 5-HT3A receptors in Xenopus oocytes, listed as Tryptamine): 0.15 ± 0.06
EC50 relative to both 5-HT and 5-FT ([2]; EC50 fold higher than 5-HT and 5-FT, both receptor types): 10–100 fold
Rmax, approximate summary value [2]: ~0.15
potency (EC50) relative to 5-HT ([2]; fold less potent / EC50 higher than 5-HT, stated for 5-HT3A and 5-HT3AB receptors together): ~100 fold
Ki [3, 10]: 15.5 ± 3.5 µM

N=C(N)NC(=N)Nc1cccc(Cl)c1 [mCPBG, m-chlorophenylbiguanide]
agonist character [4]: full agonist
nH (Hill slope) [4]: 1.6 and 1.6 ± 0.4
EC50 ([4]; read-out: EC50): 1.1 µM
Relative efficacy Rmax = Imax drug / Imax 5-HT [4]: 0.92 ± 0.09
Ki [1, 9]: 0.01 ± 0.003 µM
agonist character [2]: partial agonist
nH (Hill slope) [2, 6]: 2.3 and 2.3 ± 0.4
EC50 ([2]; 5-HT3A receptors in Xenopus oocytes, read-out: EC50): 0.5 µM
Relative efficacy Rmax = Imax drug / Imax 5-HT [2, 6]: 0.74 ± 0.07
Rmax, approximate summary value [2]: ~0.8
Ki [3, 10]: 0.012 ± 0.004 µM

NCCc1c[nH]c2ccc(Cl)cc12 [5-ClT, 5-chlorotryptamine]
Ki relative to the Ki for 5-HT [1]: ~10 fold
Ki [1, 8]: 2.7 ± 0.7 µM
agonist character [2]: very weak partial agonist
Relative efficacy Rmax = Imax drug / Imax 5-HT [2, 6]: 0.0037
EC50 [2, 7]: 8.1 µM and 8 µM
EC50 relative to Ki [2]: less than 5 fold
Ki [3]: 3.1 ± 1.1 µM

Cc1[nH]c2ccc(O)cc2c1CCN [2-methyl-5-HT]
Rmax, approximate value [5]: ~0.2
